Consider 29 compounds from ChEMBL document CHEMBL5584334, “Discovery of a Covalent Inhibitor of Pro-Caspase-1 Zymogen Blocking NLRP3 Inflammasome Activation and Pyroptosis” (J Med Chem, 2024).

Assay [1] deals with T1, Caspase-1 (Homo sapiens) (UniProt P29466).
T1 sequence (whole entry): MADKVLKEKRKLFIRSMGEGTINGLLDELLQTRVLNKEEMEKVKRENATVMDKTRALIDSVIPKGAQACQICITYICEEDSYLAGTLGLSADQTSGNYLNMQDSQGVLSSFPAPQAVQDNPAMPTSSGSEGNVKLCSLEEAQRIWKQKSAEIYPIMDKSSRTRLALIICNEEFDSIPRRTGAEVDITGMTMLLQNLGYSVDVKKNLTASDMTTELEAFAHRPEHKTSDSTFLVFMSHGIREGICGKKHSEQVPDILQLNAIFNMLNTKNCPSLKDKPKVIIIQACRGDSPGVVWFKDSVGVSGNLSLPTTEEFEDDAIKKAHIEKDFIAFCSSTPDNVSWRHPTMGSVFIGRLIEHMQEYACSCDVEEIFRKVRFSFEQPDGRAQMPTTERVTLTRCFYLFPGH
Nature of the assay: Inhibition of recombinant human caspase-1 expressed in Escherichia coli BL21 cells assessed as remaining activity at 100 uM using […] as substrate incubated for 30 mins relative to control.

The target in the next assay is T2, Caspase-1 (Homo sapiens, UniProt P29466).
T2 sequence (P29466 whole entry): T1 sequence (whole entry)
Nature of the assay: Inhibition of recombinant human caspase-1 expressed in Escherichia coli BL21 cells using […] as substrate incubated for 30 mins.

For assay [2], the target named is T1, Caspase-1 (Homo sapiens). In words: Inhibition of recombinant human caspase-1 expressed in Escherichia coli BL21 cells assessed as remaining activity at 10 uM using […] as substrate incubated for 30 mins relative to control.
For assay [3], the target named is T1, Caspase-1 (Homo sapiens). Nature of the assay: Inhibition of recombinant human caspase-1 expressed in Escherichia coli BL21 cells at 5 to 50 uM using […] as substrate incubated for 30 mins. Conditions: dose 5-50 µM.
Assay [4] has as its target NACHT, LRR and PYD domains-containing protein 3 (Mus musculus) (UniProt Q8R4B8). In words: Inhibition of NLRP3 inflammasome activation activation in LPS/nigericin stimulated mouse J774.A1 cells assessed as reduction in IL-1beta production pretreated with LPS for 3 hrs prior to compound addition for 30 mins followed by nigericin addition and measured after 45 mins by ELISA. Conditions: dose 0.001-2000 nM, time 75.0 min. The assay is classed as cell-based.

Assay [5] addresses T1, Caspase-1 (Homo sapiens). Nature of the assay: Inhibition of caspase-1 activity (unknown origin). The conditions noted are these: dose 50-300 µM.

As usually defined, the IC50 is the point on the concentration scale where inhibition reaches its midpoint.

Activity calls are given as the source filed them. No cut-off for these calls is given here. Where only a bound is given, the exact number is not on record here.

Sequence of NACHT, LRR and PYD domains-containing protein 3 (Mus musculus) (Q8R4B8 whole entry, the tested form may be a part): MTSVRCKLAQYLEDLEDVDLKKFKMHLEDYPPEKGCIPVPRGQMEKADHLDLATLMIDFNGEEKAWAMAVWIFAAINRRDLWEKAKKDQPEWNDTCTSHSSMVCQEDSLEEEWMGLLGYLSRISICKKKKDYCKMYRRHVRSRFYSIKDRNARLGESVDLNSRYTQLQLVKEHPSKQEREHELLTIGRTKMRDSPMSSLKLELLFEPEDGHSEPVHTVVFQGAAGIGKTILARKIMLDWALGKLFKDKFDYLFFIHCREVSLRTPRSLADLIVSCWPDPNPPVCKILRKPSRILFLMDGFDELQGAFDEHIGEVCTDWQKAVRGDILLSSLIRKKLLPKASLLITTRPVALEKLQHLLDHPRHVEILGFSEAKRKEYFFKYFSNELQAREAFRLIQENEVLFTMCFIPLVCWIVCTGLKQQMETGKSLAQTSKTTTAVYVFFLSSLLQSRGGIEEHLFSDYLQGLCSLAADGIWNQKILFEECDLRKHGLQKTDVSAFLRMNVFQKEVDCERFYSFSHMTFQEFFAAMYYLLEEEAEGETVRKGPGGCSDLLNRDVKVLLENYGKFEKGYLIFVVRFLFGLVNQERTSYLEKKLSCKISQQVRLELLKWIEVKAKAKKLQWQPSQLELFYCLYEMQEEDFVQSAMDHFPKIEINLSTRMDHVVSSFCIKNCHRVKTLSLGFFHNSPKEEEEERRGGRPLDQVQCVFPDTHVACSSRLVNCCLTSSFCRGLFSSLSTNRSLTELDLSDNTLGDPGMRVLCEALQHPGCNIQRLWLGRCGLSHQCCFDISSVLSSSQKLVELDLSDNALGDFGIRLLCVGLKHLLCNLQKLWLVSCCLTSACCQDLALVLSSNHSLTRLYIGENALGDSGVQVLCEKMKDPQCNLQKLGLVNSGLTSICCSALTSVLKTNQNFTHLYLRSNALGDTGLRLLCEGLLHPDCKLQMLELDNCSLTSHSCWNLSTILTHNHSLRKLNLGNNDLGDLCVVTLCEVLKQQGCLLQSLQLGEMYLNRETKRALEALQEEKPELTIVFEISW

With `CC(C)(C)OC(=O)[C@@H]1C[C@@H](N=C=S)C=C[C@@]12C(=O)N(C(=O)OCc1ccccc1)c1c(F)cccc12`, the Activity worked out at 13% at Caspase-1 (Homo sapiens) [1] and 85% on Caspase-1 (Homo sapiens) [2]. Besides, on Caspase-1, the IC50 was determined as 79.1 µM.

On to `CC(C)(C)OC(=O)[C@@H]1C[C@@H](N=C=S)C=C[C@@]12C(=O)N(C(=O)OCc1ccccc1)c1ccc(I)cc12`, for which the Activity on Caspase-1 (Homo sapiens) [1] came out at 61%; at Caspase-1 (Homo sapiens) [2] it was 88%. For the same compound, at Caspase-1, the IC50 was more than 100 µM.

In the case of `COC(=O)[C@@H]1C[C@@H](N=C=S)C=C[C@@]12C(=O)N(C(=O)OCc1ccccc1)c1ccccc12`, the Activity at Caspase-1 (Homo sapiens) [1] was 9%; at Caspase-1 (Homo sapiens) [2], 78%. Besides, the IC50 on Caspase-1 was found to be 29.4 µM.

Consider `C[S+]([O-])CCCCN=C=S` (stereo unspecified), for which the “inhibition (active/not active)” value on Caspase-1 (Homo sapiens) [3] was “inactive”. In assay [4], the inhibition entry was “Dose-Dependent Effect”.

As to `CC1=C[C@@]2(C(=O)N(C(=O)OCc3ccccc3)c3ccccc32)[C@H](C(=O)OC(C)(C)C)C[C@H]1N=C=S`, the Activity was found to be 84% at Caspase-1 (Homo sapiens) [1] and 93% on Caspase-1 (Homo sapiens) [2]. The half-inhibitory concentration (IC50) on Caspase-1 was more than 100 µM.

For `COc1ccc2c(c1)[C@]1(C=C[C@H](N=C=S)C[C@H]1C(=O)OC(C)(C)C)C(=O)N2`, the figures for the Activity on Caspase-1 (Homo sapiens) [1] and at Caspase-1 (Homo sapiens) [2] were 10% and 75%, respectively. Further, the IC50 on Caspase-1 is 40.5 µM.

On to `O=C(c1ccccc1)[C@@H]1C[C@@H](N=C=S)C=C[C@@]12C(=O)N(C(=O)OCc1ccccc1)c1ccccc12`, for which the Activity at Caspase-1 (Homo sapiens) [1] was 15%; at Caspase-1 (Homo sapiens) [2], 56%. Moreover, the IC50 at Caspase-1 worked out at 26.2 µM.

On to `CC(C)(C)OC(=O)[C@@H]1CC=C[C@@H](SC#N)[C@@]12C(=O)Nc1ccc(NC(=O)CCCC[C@@H]3SC[C@@H]4NC(=O)N[C@@H]43)cc12`, for which the inhibition result on Caspase-1 (Homo sapiens) [5] was “inactive”.

In the case of `CC(C)(C)OC(=O)[C@@H]1C[C@@H](N=C=S)C=C[C@@]12C(=O)N(C(=O)OCc1ccccc1)c1ccc(Br)cc12`, the Activity amounted to 31% on Caspase-1 (Homo sapiens) [1] and 92% at Caspase-1 (Homo sapiens) [2]. Moreover, at Caspase-1, the IC50 is 89.8 µM.

On to `O=C(OCc1ccccc1)[C@@H]1C[C@@H](N=C=S)C=C[C@@]12C(=O)N(C(=O)OCc1ccccc1)c1ccccc12`, for which the values for the Activity at Caspase-1 (Homo sapiens) [1] and on Caspase-1 (Homo sapiens) [2] were 42% and 104%, respectively. In addition, at Caspase-1, the half-maximal inhibitory concentration (IC50) amounted to 85.5 µM.

With `CCC1=C[C@@]2(C(=O)N(C(=O)OCc3ccccc3)c3ccccc32)[C@H](C(=O)OC(C)(C)C)C[C@@]1(CC)N=C=S`, the Activity at Caspase-1 (Homo sapiens) [1] worked out at 90%; at Caspase-1 (Homo sapiens) [2] it was 108%. Moreover, the concentration for half-maximal inhibition (IC50) at Caspase-1 is more than 100 µM.

Regarding `CC(C)(C)OC(=O)[C@@H]1C[C@@H](N=C=S)C=C[C@@]12C(=O)N(C(=O)OCc1ccccc1)c1ccccc12`, the Activity on Caspase-1 (Homo sapiens) [1] was 15%; at Caspase-1 (Homo sapiens) [2], 76%. Further, the IC50 on Caspase-1 worked out at 37.6 µM.

Consider `CC1=C[C@@]2(C(=O)N(C(=O)OCc3ccccc3)c3ccccc32)[C@H](C(=O)OC(C)(C)C)C[C@@]1(C)N=C=S`, for which the Activity is 91% at Caspase-1 (Homo sapiens) [1] and 103% on Caspase-1 (Homo sapiens) [2]. The IC50 at Caspase-1 is more than 100 µM.

Regarding `O=C(Oc1ccccc1)[C@@H]1C[C@@H](N=C=S)C=C[C@@]12C(=O)N(C(=O)OCc1ccccc1)c1ccccc12`, the Activity on Caspase-1 (Homo sapiens) [1] amounted to 56%; at Caspase-1 (Homo sapiens) [2] it was 101%. On Caspase-1, the IC50 is more than 100 µM.

As to `S=C=NCCc1ccccc1`, at Caspase-1 (Homo sapiens) [3], the “inhibition (active/not active)” value is “inactive”. For the same compound, the inhibition entry in assay [4] was “Dose-Dependent Effect”.

Take `COC(=O)N1C(=O)[C@@]2(C=C[C@H](N=C=S)C[C@H]2C(=O)OC(C)(C)C)c2ccccc21`: the Activity stood at 34% on Caspase-1 (Homo sapiens) [1] and 68% at Caspase-1 (Homo sapiens) [2]. For the same compound, on Caspase-1, the IC50 was found to be 58.2 µM.

Turning to `CC(C)(C)OC(=O)[C@@H]1C[C@@H](N=C=S)C=C[C@@]12C(=O)N(C(=O)OCc1ccccc1)c1cc(Br)ccc12`, the Activity came to 20% on Caspase-1 (Homo sapiens) [1] and 71% at Caspase-1 (Homo sapiens) [2]. Moreover, on Caspase-1, the half-inhibitory concentration (IC50) stood at 15.4 µM.

Regarding `COc1ccc2c(c1)[C@@]1(C=C[C@@H](N=C=S)C[C@@H]1C(=O)OC(C)(C)C)C(=O)N2C(=O)OCc1ccccc1`, the “inhibition (active/not active)” value at Caspase-1 (Homo sapiens) [3] is “Active”.

In the case of `CC(C)(C)OC(=O)[C@@H]1C[C@@H](N=C=S)C=C[C@@]12C(=O)N(C(=O)OCC1c3ccccc3-c3ccccc31)c1ccccc12`, the Activity on Caspase-1 (Homo sapiens) [1] stood at 24%; on Caspase-1 (Homo sapiens) [2] it was 90%. The half-maximal inhibitory concentration (IC50) at Caspase-1 was 75.7 µM.

For `CC(C)(C)OC(=O)[C@@H]1C[C@@H](NC(=S)NN)C=C[C@@]12C(=O)N(C(=O)OCc1ccccc1)c1ccccc12`, the Activity at Caspase-1 (Homo sapiens) [1] amounted to 84%; on Caspase-1 (Homo sapiens) [2], 107%. Besides, the IC50 at Caspase-1 was more than 100 µM.

As for `CC(C)OC(=O)[C@@H]1C[C@@H](N=C=S)C=C[C@@]12C(=O)N(C(=O)OCc1ccccc1)c1ccccc12`, the values for the Activity at Caspase-1 (Homo sapiens) [1] and on Caspase-1 (Homo sapiens) [2] were 19% and 104%, respectively. At Caspase-1, the half-maximal inhibitory concentration (IC50) stood at 72.9 µM.

As to `CC(C)(C)OC(=O)[C@@H]1C[C@@H](N=C=S)C=C[C@@]12C(=O)N(C(=O)OCc1ccccc1)c1ccc(F)cc12`, the values for the Activity at Caspase-1 (Homo sapiens) [1] and on Caspase-1 (Homo sapiens) [2] were 17% and 81%, respectively. Moreover, the 50% inhibitory concentration (IC50) on Caspase-1 came to 80.7 µM.

Regarding `CC(C)(C)OC(=O)[C@@H]1C[C@@H](NC(=S)Nc2ccccc2)C=C[C@@]12C(=O)N(C(=O)OCc1ccccc1)c1ccccc12`, the Activity came to 84% on Caspase-1 (Homo sapiens) [1] and 112% on Caspase-1 (Homo sapiens) [2]. For the same compound, on Caspase-1, the IC50 is more than 100 µM.

On to `COc1ccc2c(c1)[C@@]1(C(=O)N2C(=O)OCc2ccccc2)[C@@H](SC#N)C=CC[C@H]1C(=O)OC(C)(C)C`, for which the “inhibition (active/not active)” value on Caspase-1 (Homo sapiens) [3] is “inactive”.

For the compound `CC(C)(C)OC(=O)[C@@H]1C[C@@H](N=C=S)C=C[C@@]12C(=O)N(C(=O)OCc1ccccc1)c1ccc(Cl)cc12`, the Activity on Caspase-1 (Homo sapiens) [1] was 24%; on Caspase-1 (Homo sapiens) [2], 77%. For the same compound, the IC50 at Caspase-1 is 84.8 µM.

With `Cc1ccc2c(c1)[C@]1(C=C[C@H](N=C=S)C[C@H]1C(=O)OC(C)(C)C)C(=O)N2C(=O)OCc1ccccc1`, the Activity turned out to be 15% on Caspase-1 (Homo sapiens) [1] and 68% on Caspase-1 (Homo sapiens) [2]. Moreover, the 50% inhibitory concentration (IC50) at Caspase-1 was determined as 28.4 µM.

Consider `CC(C)(C)OC(=O)[C@@H]1C[C@@H](N=C=S)C=C[C@@]12C(=O)N(C(=O)OCc1ccccc1)c1cc(F)c(F)cc12`, for which the Activity at Caspase-1 (Homo sapiens) [1] was 21%; on Caspase-1 (Homo sapiens) [2] it was 73%. For the same compound, the IC50 at Caspase-1 amounted to 43.6 µM.

On to `COc1ccc2c(c1)[C@]1(C=C[C@@H](N=C=S)C[C@H]1C(=O)OC(C)(C)C)C(=O)N2C(=O)OCc1ccccc1`, for which the “inhibition (active/not active)” value at Caspase-1 (Homo sapiens) [3] is “Active”.

As for `S=C=NCc1ccccc1`, at Caspase-1 (Homo sapiens) [3], the “inhibition (active/not active)” value is “Active”. Also, the inhibition result in assay [4] was “Dose-Dependent Effect”.
